Laboratory results reported in ChEMBL document CHEMBL4265897, “Discovery of benzothiazole amides as potent antimycobacterial agents” (Bioorg Med Chem Lett, 2018).
≈ marks a conversion by molar mass, not a printed value.

Experiments:
[1] = system: Mycolicibacterium fortuitum; experiment: Antimycobacterial activity against Mycobacterium fortuitum 41 by CLSI method; format: functional
[2] = system: Mycobacterium avium; experiment: Antimycobacterial activity against Mycobacterium avium 101 by CLSI method; format: functional
[3] = system: Mycobacteroides abscessus; experiment: Antimycobacterial activity against Mycobacterium massiliense 119 by CLSI method; format: functional, Mycobacterium abscessus subsp. massiliense
[4] = system: Mycobacteroides abscessus; experiment: Antimycobacterial activity against Mycobacterium abscessus 103 by CLSI method; format: functional
[5] = system: Mycobacteroides abscessus; experiment: Antimycobacterial activity against Mycobacterium abscessus 1 by CLSI method; format: functional
[6] = system: Mycolicibacterium peregrinum; experiment: Antimycobacterial activity against Mycobacterium peregrinum ATCC 700686 by CLSI method; format: functional
[7] = system: Mycobacteroides chelonae; experiment: Antimycobacterial activity against Mycobacterium chelonae 93 by CLSI method; format: functional
[8] = system: Mycobacteroides abscessus; experiment: Antimycobacterial activity against Mycobacterium abscessus 21 by CLSI method; format: functional
[9] = system: Mycobacterium tuberculosis; experiment: Antimycobacterial activity against Mycobacterium tuberculosis H37Rv MC2 6206 by CLSI method; format: functional
[10] = system: Mycobacteroides abscessus; experiment: Antimycobacterial activity against Mycobacterium abscessus 79 by CLSI method; format: functional
[11] = system: Mycobacterium intracellulare; experiment: Antimycobacterial activity against Mycobacterium intracellulare 1956 by CLSI method; format: functional
[12] = system: Mycobacteroides abscessus; experiment: Antimycobacterial activity against Mycobacterium abscessus ATCC 19977 by CLSI method; format: functional

Row | SMILES | MIC [1] [µg/mL] | MIC [2] [µg/mL] | MIC [3] [µg/mL] | MIC [4] [µg/mL] | MIC [5] [µg/mL] | MIC [6] [µg/mL] | MIC [7] [µg/mL] | MIC [8] [µg/mL] | MIC [9] [µg/mL] | MIC [10] [µg/mL] | MIC [11] [µg/mL] | MIC [12] [µg/mL]
1 | CC12CCCC(C(=O)Nc3nc4cc(Br)ccc4s3)(CCC1)C2 | 0.03 (≈ 0.0763 µM) | 4 (≈ 10.2 µM) | 0.06 (≈ 0.153 µM) | 0.06 (≈ 0.153 µM) | 0.25 (≈ 0.636 µM) | ≤ 0.07 | 0.06 (≈ 0.153 µM) | 0.06 (≈ 0.153 µM) | ≤ 0.12 | 0.06 (≈ 0.153 µM) | 1 (≈ 2.54 µM) | 
2 | O=C(Nc1nc2ccc(C(F)(F)F)cc2s1)C1CC2CCC1C2 (stereo not given) |  | 32 (≈ 94 µM) |  |  |  |  |  |  |  |  | 32 (≈ 94 µM) | > 64
3 | CC1CC(C(=O)Nc2nc3c(Cl)cccc3s2)CC(C)(C)C1 (stereo not given) | 4 (≈ 11.9 µM) | > 64 | 1 (≈ 2.97 µM) |  | 2 (≈ 5.94 µM) | 1 (≈ 2.97 µM) | 2 (≈ 5.94 µM) | 2 (≈ 5.94 µM) |  | 4 (≈ 11.9 µM) | 16 (≈ 47.5 µM) | 16 (≈ 47.5 µM)
4 | CC12CCCC(C(=O)Nc3nc4ccc(OC(F)F)cc4s3)(CCC1)C2 | 1 (≈ 2.63 µM) | 8 (≈ 21 µM) | 0.12 (≈ 0.315 µM) |  | 0.25 (≈ 0.657 µM) | 0.12 (≈ 0.315 µM) | 0.25 (≈ 0.657 µM) | 0.12 (≈ 0.315 µM) |  | 0.12 (≈ 0.315 µM) | 4 (≈ 10.5 µM) | 
5 | CC1CC(C(=O)Nc2nc3cc(F)ccc3s2)CC(C)(C)C1 (stereo not given) | 2 (≈ 6.24 µM) | 16 (≈ 49.9 µM) | 2 (≈ 6.24 µM) |  | 2 (≈ 6.24 µM) | 4 (≈ 12.5 µM) | 2 (≈ 6.24 µM) | 0.5 (≈ 1.56 µM) |  | 2 (≈ 6.24 µM) | 16 (≈ 49.9 µM) | 1 (≈ 3.12 µM)
6 | CC1CC(C(=O)Nc2nc3ccc(C(F)(F)F)cc3s2)CC(C)(C)C1 (stereo not given) | 0.5 (≈ 1.35 µM) | > 64 | 2 (≈ 5.4 µM) |  | 0.5 (≈ 1.35 µM) | 0.25 (≈ 0.675 µM) | 0.25 (≈ 0.675 µM) | 0.5 (≈ 1.35 µM) |  | 0.5 (≈ 1.35 µM) | > 64 | 
7 | CC1CC(C(=O)Nc2nc3cc(C(F)(F)F)ccc3s2)CC(C)(C)C1 (stereo not given) | 0.25 (≈ 0.675 µM) | > 64 | 0.5 (≈ 1.35 µM) | 0.5 (≈ 1.35 µM) |  | 0.12 (≈ 0.324 µM) | 0.25 (≈ 0.675 µM) | 0.25 (≈ 0.675 µM) | ≤ 0.12 | 0.25 (≈ 0.675 µM) | > 64 | 
8 | CC1CC(C(=O)Nc2nc3cccc(F)c3s2)CC(C)(C)C1 (stereo not given) | 0.12 (≈ 0.374 µM) | 8 (≈ 25 µM) | 0.25 (≈ 0.78 µM) | 0.5 (≈ 1.56 µM) | 0.5 (≈ 1.56 µM) | 0.06 (≈ 0.187 µM) | 0.5 (≈ 1.56 µM) | 0.25 (≈ 0.78 µM) | 1 (≈ 3.12 µM) | 0.25 (≈ 0.78 µM) | 16 (≈ 49.9 µM) | 
9 | O=C(Nc1nc2ccc(OC(F)(F)F)cc2s1)C1CCCCCC1 | > 64 | > 64 | > 64 | > 64 | > 64 | > 64 | 32 (≈ 89.3 µM) | > 64 | 64 (≈ 179 µM) | > 64 | > 64 | 
10 | CC1(C)CCCC(C(=O)Nc2nc3ccc(C(F)(F)F)cc3s2)C1 (stereo not given) | > 64 | > 64 | 0.5 (≈ 1.4 µM) |  | > 64 | 64 (≈ 180 µM) | 0.25 (≈ 0.701 µM) | 64 (≈ 180 µM) |  | 64 (≈ 180 µM) | > 64 | 
11 | CC1CC(C(=O)Nc2nc3cccc(O)c3s2)CC(C)(C)C1 (stereo not given) | 2 (≈ 6.28 µM) |  | 2 (≈ 6.28 µM) | 2 (≈ 6.28 µM) |  | 0.12 (≈ 0.377 µM) | 1 (≈ 3.14 µM) | 16 (≈ 50.2 µM) |  | 8 (≈ 25.1 µM) | 4 (≈ 12.6 µM) | 
12 | CC12CCCC(C(=O)Nc3nc4ccc(C(F)(F)F)cc4s3)(CCC1)C2 | 0.5 (≈ 1.31 µM) | > 8 | 0.25 (≈ 0.654 µM) | 0.12 (≈ 0.314 µM) | 0.5 (≈ 1.31 µM) | 0.12 (≈ 0.314 µM) | 0.5 (≈ 1.31 µM) | 0.25 (≈ 0.654 µM) |  | 0.25 (≈ 0.654 µM) | 4 (≈ 10.5 µM) | 
13 | CC1CCC(C(=O)Nc2nc3ccc(C(F)(F)F)cc3s2)CC1 (stereo not given) |  | > 64 |  |  |  |  |  |  |  |  | > 64 | 64 (≈ 187 µM)
14 | CC12CCCC(C(=O)Nc3nc4cc(F)cc(F)c4s3)(CCC1)C2 | 0.25 (≈ 0.713 µM) | 4 (≈ 11.4 µM) | 0.25 (≈ 0.713 µM) | 0.06 (≈ 0.171 µM) | 0.12 (≈ 0.342 µM) | 0.06 (≈ 0.171 µM) | 0.06 (≈ 0.171 µM) | 0.06 (≈ 0.171 µM) |  | 0.06 (≈ 0.171 µM) | 4 (≈ 11.4 µM) | 
15 | CC1CC(C(=O)Nc2nc3ccc(F)cc3s2)CC(C)(C)C1 (stereo not given) | 0.25 (≈ 0.78 µM) | 8 (≈ 25 µM) | 0.25 (≈ 0.78 µM) | 0.25 (≈ 0.78 µM) | 0.5 (≈ 1.56 µM) | 0.06 (≈ 0.187 µM) | 0.25 (≈ 0.78 µM) | 0.5 (≈ 1.56 µM) | 4 (≈ 12.5 µM) | 0.5 (≈ 1.56 µM) | 8 (≈ 25 µM) | 
16 | CC1CC(C(=O)Nc2nc3c(F)cc(Br)cc3s2)CC(C)(C)C1 (stereo not given) | 2 (≈ 5.01 µM) | > 64 | 1 (≈ 2.5 µM) | 1 (≈ 2.5 µM) | 1 (≈ 2.5 µM) | 0.5 (≈ 1.25 µM) | 0.25 (≈ 0.626 µM) | 0.5 (≈ 1.25 µM) |  | 0.5 (≈ 1.25 µM) | 16 (≈ 40.1 µM) | 
17 | CC1CC(C(=O)Nc2nc3cc(Cl)cc(Cl)c3s2)CC(C)(C)C1 (stereo not given) | 0.25 (≈ 0.673 µM) | 8 (≈ 21.5 µM) | 0.25 (≈ 0.673 µM) | 0.5 (≈ 1.35 µM) |  | 0.12 (≈ 0.323 µM) | 0.12 (≈ 0.323 µM) | 0.25 (≈ 0.673 µM) | 1 (≈ 2.69 µM) | 0.12 (≈ 0.323 µM) | 16 (≈ 43.1 µM) | 
